Laboratory results from patent US11129845B2, “Compositions and methods for the delivery of nucleic acids” (CASE WESTERN RESERVE UNIVERSITY, priority 2014, dated 2021).

Key:
GFP reporter protein = experiment: GFP reporter silencing in CHO-GFP cells (flow cytometry); assay type: cell-based, Chinese hamster; conditions: N/P=4, 48 h post-transfection, 100 nM siRNA
Method: The RNAi induced silencing capabilities of each carrier was investigated in both a CHO-GFP non-cancerous cell line and an HT29-Luc (luciferase) human colon cancer cell line. Approximately 50,000 CHO-GFP cells were seeded into 6 well plates. When 25% confluency was achieved, the growth media were replaced with fresh serum free transfection media containing siRNA nanoparticles, at a dose of 100 nM siRNA. Negative controls included cells that were either treated with naked anti-GFP siRNA or with plain serum-free media. N/P ratios of 4, 6, 8, 10, 12, and 14 were tested for each carrier to determine the optimal nanoparticle formulation. […] After 4 h, the media were removed and replaced with fresh complete growth media, and cells were allowed to grow for another 24, 48, or 72 h post-transfection. At each of these time points, the CHO-GFP cells were rinsed twice with PBS, trypsinized, and fixed with 2% paraformaldehyde. […] Cell-Quest software was used to analyze the results and obtain mean fluorescence intensity (MFI) values.
(§1) The RNAi capabilities of each carrier were investigated by analyzing the silencing of a luciferase (Luc) reporter in HT29 cancer cells after anti-Luc siRNA therapy. […] Luciferase expression was determined using a Spectra Max luminometer upon the addition of a light-inducing substrate to the collected protein. […]

CHO-GFP cells = assay type: cell-based, Chinese hamster
Method: Cytotoxicity of the carriers was investigated using an MTT colorimetric assay measuring cellular metabolic activity (Invitrogen). The transfection procedure was identical to that presented for the reporter knockdown studies above, except for the fact that 96 well plates were utilized instead, and seeded with 10,000 cells per well. After transfection, the cells were allowed to grow for an additional 48 h. At that point, they were incubated with MTT for 4 h, followed by an additional 4 hour incubation with an SDS-HCl solution to dissolve any insoluble formazan crystals formed by the reduction of MTT by NAD(P)H-dependent enzymes in the cells. The absorbance of each sample was measured at 570 nm using a SpectraMax microplate reader. Cellular viability was calculated by averaging the signal intensities over three replicates and then normalizing the results relative to the negative control data.
as §1, with “therapy. To perform this study, we seeded HT29-Luc cells in 12 well plates at a density of 20,000 cells per well.” for “therapy.”

[1] = test system: HT29 colon carcinoma cells; experiment: Cellular uptake of Alexa Fluor 488-siRNA via flow cytometry; assay type: cell-based, human; conditions: HT29, N/P=18, 4 h, 100 nM Alexa Fluor 488-siRNA
Method: Flow cytometry was used to investigate the cellular uptake of our delivery system in HT29 colon carcinoma cells. All carriers in the library were formulated into nanoparticles by condensing Alexa Fluor 488-labeled siRNA at the optimal N/P ratio determined by the above luciferase knockdown studies. Approximately 50,000 cancer cells were seeded in 6-well plates and allowed to grow until 30-50% confluence was reached. The cancer cells were transfected with a 100 nM siRNA dose in serum-free media. After 4 h, the transfection media were aspirated and the cells were washed twice with PBS. The cells were then trypsinized, collected, and fixed with 2% paraformaldehyde in PBS, prior to flow cytometric analysis.

HT29-Luc cells = experiment: Live-cell confocal imaging of intracellular siRNA release; assay type: cell-based, human
Method: Live-cell confocal imaging was utilized to image the intracellular release and dispersion of siRNA following transfection with the lipid carrier that performed best during the reporter knockdown studies. Approximately 50,000 HT29-Luc cells were seeded onto glass-bottom dishes (MatTek—Ashland, Mass.). Once 40% confluency was established, the cells were stained with 75 nM LysoTracker Red DND-99 (Invitrogen) for 30 min in normal growth medium. Afterwards, the cells were transfected with 100 nM Alexa Fluor 488-labeled anti-Luc siRNA in fresh serum-free media using the designed cationic lipid agent that performed the best in the above reporter knockdown experiments. Imaging commenced 5 min post-transfection using an Olympus FV1000 confocal microscope, and continued periodically over the first 2 h. Throughout the course of the study, all cells were kept alive on the microscope in a humidified weather station under normal gas conditions (5% CO2). Another image was acquired after 24 h following re-administration of the LysoTracker stain.
Confocal microscopy was utilized to perform a time course study that analyzed the uptake and intracellular release kinetics of siRNA using the ECO delivery platform. Intracellular release and dispersion of siRNA is essential in RNA interference since the RNAi machinery is found in the cytosol. The images in FIG. 27 reveal that upon cellular uptake, the ECO nanoparticles are able to facilitate the escape of its siRNA payload from the endocytic pathway within the first 2 hours after transfection, avoiding lysosomal degradation. Such results are in congruence with the hemolytic activity data showing the membrane disruptive properties of the delivery system in pH environments characteristic of both endosomes and lysosomes.

[2] = Ribogreen siRNA entrapment efficiency of ECO/siRNA nanoparticles; assay type: physicochemical
Description: A Ribogreen assay (Molecular Probes) was used to quantify the entrapment efficiency of siRNA within the ECO/siRNA nanoparticles. […] Free siRNA following particle formation was detected using a SpectraMax microplate reader (Molecular Devices) with an excitation of 500 nm and emission of 525 nm.

## CCCCCCCC/C=C\CCCCCCCC(=O)N[C@@H](CS)C(=O)NCCNC(=O)CCN(CCN)CCC(=O)NCCNC(=O)[C@H](CS)NC(=O)CCCCCCC/C=C\CCCCCCCC [ECO, (1-aminoethyl)iminobis[N-(oleicylcysteinyl-1-amino-ethyl)propionamide]]
GFP reporter protein
  relative GFP reporter expression: 61.0±5.05%
CHO-GFP cells
  cell viability (MTT): greater than 85%
[1]
  cellular uptake, mean fluorescence intensity (MFI): 2571±90
HT29-Luc cells; HT29-Luc, after transfection
  time to escape of siRNA payload from the endocytic pathway: ≤ 90 min
HT29-Luc cells; HT29-Luc, post-transfection
  time to evade lysosomal degradation: ≤ 1 h
HT29-Luc cells; after transfection (Example 3)
  time to escape of siRNA payload from the endocytic pathway: ≤ 120 min
[2]; N/P=6
  siRNA entrapment (RiboGreen): 82.1±4.3%
[2]; N/P=20
  siRNA entrapment (RiboGreen): 98.7±5.0%
